One series deals with HT-29 tumor cells. The experiment in a line: combination L552 peptide and cytostatic, MTT, CalcuSyn, HT-29. Type of series: cell-based, human. The method, then:
(§1) For this assay, HT-29 and H-125 tumor cells were seeded in 96-well plates (Costar) at a density of 1×10^4 cells mL in RPMI 1640 (Gibco) supplemented with fetal calf serum (Gibco). After 24 hours, the peptide was added to the culture medium in a dose range between 9 μM and 300 μM and the cytostatic drug was added in a range dose of 1:10 serial dilution over and below the reported IC50 for each cell line. […] The effect of concomitant treatment cytostatic-peptide was analyzed by the CalcuSyn computer software to study drug combinations (Ting-Chao Chou, 2006, Pharmacological Reviews, 58: 621-681). […] The combination 5-FU+L552 peptide allows a 20 times reduction (RI) of cytostatic in the HT-29 cell line. For the combination cisplatin+L552 peptide, the cytostatic reduction is 5 times in the H-125 cell line. […] This can reduce the adverse effects associated with chemotherapy.

For series [1], the system named is HT-29 cell line transiently transfected with GFP-N-COMMD1. The experiment in a line: chemosensitivity to 5-FU of transfected HT-29 cells, MTT. Type of series: cell-based, human. The conditions noted are these: cells expressing GFP-NCOMMD1 compared to GFP or GFP-COMMD1, 48 hours. On the procedure: (A) The HT-29 cell line transiently transfected with constructs described above were seeded in 96-well plates (Costar) at density of 1×10^4 cells/mL in RPMI 1640 (Gibco) supplemented with fetal calf serum (Gibco) After 24 hours, the cytostatic 5-FU was added to the culture medium in a dose range between 0.025 μM and 2500 μM, in 1:10 serial dilutions. […] Finally, the plate reading at an absorbance of 492 nm was carried out. Each point was performed in duplicate, and experiments were carried out at least twice independently. The IC50 values were obtained from the respective curves of cell proliferation.

Series [2] relates to COMMD1 nuclear localization in SW948 cells. The series can be described thus: COMMD1 sub-cellular (nuclear) localization in SW948 cells, Western blot. Type of series: cell-based, human. The conditions noted are these: peptide 50 μM, 5 hours. On the procedure: (B) SW948 cells (3×10^6 cells) were incubated for 5 hours at 37° C. and 5% CO2 with the L2 peptide (50 μM). Subsequently, cytosolic and nuclear proteins were obtained as reported (Vancurova et al., 2001, Journal of Biological Chemistry, 276: 19746-19752). The COMMD1 detection was performed by Western blot using an anti-COMMD1 antibody. […] Beta Actin was used as a control for the cytoplasmic fraction and the human ribonucleoprotein (hnRNP) as a control of the nuclear fraction.
In this experiment the objective was to identify a peptide with a higher capacity to accumulate COMMD1 in the nucleus of the cells. SW948 cells (3×10^6 cells) were incubated for 5 hours at 37° C. and 5% CO2 with L2, L551, L552, L553 and L554 peptides (50 μM). Subsequently, isolation of cytosolic and nuclear proteins was performed as described in Example 2. COMMD1 detection was performed by Western blot using an anti-COMMD1 antibody. […] Also, the interaction is related to the facilitation of nuclear accumulation of COMMD1.

Series [3] deals with T1, COMMD1 protein (Homo sapiens, UniProt Q8N668). The series can be described thus: two-hybrid yeast system, L2 peptide-protein interaction. The class given is binding. On the set-up: expressed in transfected cells; host or cells: Saccharomyces cerevisiae Y187 (mated with AH109 carrying pGBKL2-1). To be noted: COMMD1 deletion clones. The method, then:
To identify anti-tumor L2 peptide-protein interactions the two-hybrid yeast system was used. For cloning the sequences corresponding to the peptide the oligonucleotides were designed as follows:
corresponding to the L2 peptide sequence: […] For cloning these sequences in the pGBKT7 NcoI-BamHI vector, sequences complementary to these sites were added at the ends of the oligonucleotides. The pGBKL2-1 recombinant plasmid, which carries the L2 peptide sequence was verified by restriction analysis and sequencing. The plasmid was transformed into the AH109 yeast strain by the lithium acetate method and grown in SD-Trp medium. It was verified that it could not be self-activated when grown on SD-Trp-His plates. For the screening of the interactions, a human liver cDNA library transformed into the Y187 strain was used. For the diploid formation and the selection of interactions, 5×10^8 AH109 cells containing the pGBKL2-1 plasmid were grown with 5×10^8 Y187 cells containing the human liver DNA library, for 4 hours, on solid medium YPDA at 30° C. Ten ml of sterile water were added on the surface of the YPDA plates, and the cells were suspended carefully with spatula and transferred to 15 plates of SD-Trp-Leu-His-Ade minimal media and grown at 30° C. for 7 days. The 74 resulting colonies were transferred to liquid SD-Trp-Leu in 96 deep well plates. […]
Target sequence in this assay (Q8N668 6-190): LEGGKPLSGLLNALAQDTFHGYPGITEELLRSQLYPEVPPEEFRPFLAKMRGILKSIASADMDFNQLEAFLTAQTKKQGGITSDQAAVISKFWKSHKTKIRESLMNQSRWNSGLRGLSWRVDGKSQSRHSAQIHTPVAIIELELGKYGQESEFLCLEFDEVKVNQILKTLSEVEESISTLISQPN

Series [4] has as its target T1, COMMD1 protein. The series can be described thus: pulldown with biotinylated L2 peptide, SW948 total protein extract, Western blot. To be noted: compared to total protein extract. Type of series: binding. On the set-up: Total extract protein from SW948 (cell line from human colon carcinoma); endogenous in cells; host or cells: SW948. On the procedure:
(A) The synthetic L2 peptide (SEQ ID No. 1), synthesized using a solid phase procedure was biotinylated and used as “bait” attached to a streptavidin sepharose resin. Total extract protein from SW948 (cell line from human colon carcinoma) was used as a “prey”. These experiments are known as “pulldown”. The total extract protein was obtained from […] cells using extraction buffer (Triton X-100 0.5% 25 mM HEPES, pH 7.5, 100 mM NaCl, 1 mM EDTA, 10% glycerol, 1 mM dithiothreitol (DTT), and a protease inhibitor). The biotinylated peptide (300 μg) was incubated with 50 μL of streptavidin sepharose resin (GE Healthcare), for 1 hour, and washed with phosphate buffered saline (PBS 1×) plus 1 mM DTT were done. Then, 500 μL of total proteins were incubated with 50 μL resin containing the biotinylated peptide, at room temperature for 5 hours. Subsequently, the resin is washed extensively with PBS 1× and 1 mM DTT. Proteins remaining attached to the resin are those that interact with the peptide, and are suspended in 25 μL of electrophoresis buffer (62.5 mM Tris HCl, pH 6.9, 0.1 M DTT, 20% sodium dodecyl-sulphate (SDS), 10% glycerol and 0.01% bromophenol blue). To detect the protein of interest a polyacrylamide gel electrophoresis (7.5%) was performed, followed by immunodetection by Western blot. To detect the COMMD1 protein, a monoclonal antibody against COMMD1 protein (Sigma, clone 2A12) was used. […]
Target sequence in this assay (Q8N668 whole entry): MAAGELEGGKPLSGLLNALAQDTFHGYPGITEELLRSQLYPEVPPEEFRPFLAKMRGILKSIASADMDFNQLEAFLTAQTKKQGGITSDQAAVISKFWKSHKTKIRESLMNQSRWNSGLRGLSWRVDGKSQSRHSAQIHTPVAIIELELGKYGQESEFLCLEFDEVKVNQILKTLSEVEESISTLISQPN

Another series concerns H-125 tumor cells. The experiment in a line: combination L552 peptide and cytostatic, MTT, CalcuSyn, H-125. The class given is cell-based, human. On the procedure:
as §1

Consider `O=c1[nH]cc(F)c(=O)[nH]1` [Peptide 5-FU, 5-fluorouracil], for which, in the series on HT-29 tumor cells (HT-29, at Af 89%), the “Drug 5-FU” value was 5000 µM. Further, in the series on HT-29 tumor cells (HT-29, reduction index of the drug in combination with L552), the “RI (5-FU)” value is 20. Further, in series [1], the “IC50 of 5-FU” value is recorded as “reduction of the IC50”.

On to “HARIKPTFRRLKWKYKGKFW [Peptide L2, Peptide previously described in application WO 07/095 867]”, for which the “COMMD1 nuclear localization / accumulation” value in series [2] is “COMMD1 nuclear localization”. Besides, the “interaction with COMMD1 (region responsible)” value in the series with COMMD1 protein [3] is “specifically binds the region between amino acids 110-190”. In the series with COMMD1 protein [4], the “COMMD1 pulled down by the peptide” value was “concentrates the COMMD1 protein”.

Regarding `N.N.[Cl][Pt][Cl]` [cisplatin], the “Drug cisplatin” value in the series with H-125 tumor cells (H-125, at Af 94%) was 273 µM. For the same compound, the “RI (cisplatin)” value in the series with H-125 tumor cells (H-125, reduction index of the drug in combination with L552) is given as 5.

Source of the values: patent US8729226B2, “Cancer therapy method” (Centro de Ingenieria Genetica y Biotecnologia, priority 2010, dated 2014).
